BindingDB's records for patent US10053471 (Boehringer Ingelheim International, 2018)

Biological target: 5'-AMP-activated protein kinase catalytic subunit alpha-1/subunit beta-1/subunit gamma-1 (Homo sapiens, UniProt P54619+Q13131+Q9Y478)
Experiment: in vitro AMPK activation assays
Details: pH 7; 25 °C
Experimental: The test compounds were dissolved in 100% DMSO at a concentration of 10 mM and in a first step diluted in DMSO to a concentration of 5 mM, followed by serial dilution steps in 100% DMSO. Dilution factor and number of dilution steps may vary. Typically 8 different concentrations by 1:5 dilutions were prepared, further dilutions of the substances were carried out with test buffer (20 mM Hepes (pH 7.0), 15 mM MgCl2, 0.025% BSA, 0.01% Brij 35) until a concentration was reached which was 5 times above the final test concentration. 2 μl aliquots of these dilutions were transferred into a 384-well Optiplate (Perkin Elmer, #6007290). Typically the start concentration for serial dilutions in the assay is 10 μM. Typically AMPK was diluted to 25 μg/ml in the test buffer and 4 μl of this dilution were used in the kinase test (final concentration of AMPK is 10 μg/ml in a total volume of 10 μl for the kinase reaction). Kinase concentrations may vary depending on activity of the preparation batches. […] The plates were read with an Envision Luminescence Reader (Perkin-Elmer).

5'-AMP-activated protein kinase catalytic subunit alpha-1/subunit beta-1/subunit gamma-1, sequence (Q9Y478 whole entry): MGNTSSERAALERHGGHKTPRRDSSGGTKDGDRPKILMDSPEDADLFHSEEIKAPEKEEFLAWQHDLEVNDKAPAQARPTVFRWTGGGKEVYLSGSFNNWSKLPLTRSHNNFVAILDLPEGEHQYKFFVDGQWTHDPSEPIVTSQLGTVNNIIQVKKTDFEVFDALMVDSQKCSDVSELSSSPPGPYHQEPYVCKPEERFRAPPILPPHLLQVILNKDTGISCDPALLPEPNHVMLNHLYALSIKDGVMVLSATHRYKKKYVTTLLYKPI
5'-AMP-activated protein kinase catalytic subunit alpha-1/subunit beta-1/subunit gamma-1, sequence (P54619 whole entry): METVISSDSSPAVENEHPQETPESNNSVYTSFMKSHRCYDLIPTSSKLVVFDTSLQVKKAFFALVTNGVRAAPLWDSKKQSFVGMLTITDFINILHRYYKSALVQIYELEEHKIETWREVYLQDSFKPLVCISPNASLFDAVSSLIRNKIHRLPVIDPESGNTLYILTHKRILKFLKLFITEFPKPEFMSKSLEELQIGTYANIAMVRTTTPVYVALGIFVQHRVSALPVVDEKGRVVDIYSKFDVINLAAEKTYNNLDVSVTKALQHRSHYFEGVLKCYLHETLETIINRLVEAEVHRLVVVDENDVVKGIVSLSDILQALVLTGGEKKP
5'-AMP-activated protein kinase catalytic subunit alpha-1/subunit beta-1/subunit gamma-1, sequence (Q13131 whole entry): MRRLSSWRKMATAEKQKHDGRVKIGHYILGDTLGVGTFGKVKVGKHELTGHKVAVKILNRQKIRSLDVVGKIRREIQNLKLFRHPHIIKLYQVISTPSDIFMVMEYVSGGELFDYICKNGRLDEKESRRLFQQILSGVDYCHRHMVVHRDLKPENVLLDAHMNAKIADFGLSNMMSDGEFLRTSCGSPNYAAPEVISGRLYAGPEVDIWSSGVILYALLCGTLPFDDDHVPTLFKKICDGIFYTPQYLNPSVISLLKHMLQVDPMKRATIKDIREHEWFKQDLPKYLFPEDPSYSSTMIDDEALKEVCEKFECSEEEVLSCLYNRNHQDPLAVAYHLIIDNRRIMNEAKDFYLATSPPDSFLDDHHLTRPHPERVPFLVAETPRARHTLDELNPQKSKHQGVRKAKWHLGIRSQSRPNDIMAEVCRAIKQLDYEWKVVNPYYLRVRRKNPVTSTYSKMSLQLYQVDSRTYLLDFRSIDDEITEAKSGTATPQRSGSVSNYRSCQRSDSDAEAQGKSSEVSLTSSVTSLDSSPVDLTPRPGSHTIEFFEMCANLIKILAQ

For `CS(=N)(=O)c1ccc(-c2ccc(-c3nc4[nH]c(O[C@@H]5CO[C@H]6[C@@H]5OC[C@H]6O)nc4cc3Cl)cc2)c(F)c1` (stereo partly specified) [US10053471, 13], the EC50 was 71 nM.
